Assays:
[1] = in water; cited from earlier work
[2] = Rubusoside and 6% sucrose sweetness enhancement test; format: in vivo, human; conditions: 50 mg rubusoside in 1 L of 6% sucrose; scale of 6-10 relative to 6-10% sucrose references; 6% sucrose reference rated 6.1
Protocol: Reference samples were prepared at 6, 7, 8, 9 and 10% sucrose (w/v). The test sample was prepared by addition of 50 mg of rubusoside to 1 L of 6% sucrose. The test sample was mixed with five sucrose control samples of various concentrations in the 6-10% sucrose range. Each of the six samples was then individually rated for sweetness intensity on a scale of 6-10 relative to the 6-10% sucrose references.
The Sweetness Intensity Rating ranged from 6 to 10, for each subject.

[3] = Rubusoside sweetness detection threshold estimation in water, sip-and-spit, 5 subjects; format: in vivo, human; conditions: 50 ppm solution in purified water, all 5 subjects
Protocol: Preliminarily, a 1,000 ppm steviol glycoside solution was prepared by dissolution of 20 mg steviol glycoside in 20 mL purified water. An aliquot (10 mL) of this solution was diluted to 20 mL with water to obtain a 500 ppm solution. Additional 1:1 serial dilutions were used to obtain 250, 125, 62.5, 31.2 and 15.6 ppm solutions. Those solutions were then tasted in ascending order of concentration by one experienced subject by using the sip-and-spit protocol disclosed herein. The subject's estimated sweetness detection threshold was determined to be at the lowest concentration at which sweetness was definitely observed.
Thereafter, a 200 ppm solution of rubusoside was prepared by dissolution of 20 mg rubusoside in 200 mL purified water. An aliquot (50 mL) of this solution then was diluted to 100 mL with water to obtain a 100 ppm solution. Additional 1:1 serial dilution steps were used to prepare 50 and 25 ppm solutions. These solutions then were tasted in ascending order of concentration by 5 experienced subjects by the sip-and-spit protocol.

[4] = Sweetness enhancement of glucose, fructose or sucrose at 6% SE in water by additive at its threshold level; format: in vivo, human; conditions: rubusoside at 50 ppm, 6% sucrose in water
[5] = Sweetness detection threshold level in water, multi-sip and swallow taste method; format: in vivo, human; conditions: in water at room temperature, single assessor
Description: As used herein, the terms “sweetness threshold,” “sweetness recognition threshold,” and “sweetness detection threshold” are understood to mean the level at which the lowest known concentration of a certain sweet compound that is perceivable by the human sense of taste and it can vary from person to person. For example, a typical sweetness threshold level for sucrose in water can be 0.5%.
Further for example, the at least one sweetness enhancer to be used can be assayed in water at least 25% lower and at least 25% higher than the sucrose detection level of 0.5% in water to determine the sweetness threshold level.
(§1) A first sip (approximately 2.2 mL) of a ca. 20 mL control composition was taken and swallowed. After waiting for a time ranging from 15 to 25 seconds, a second sip of control composition was taken and swallowed, and the sweetness and/or taste of the control composition was noted. After waiting for a time ranging from 15 to 25 seconds, these steps were repeated with a comparative composition. The sweetness and taste differences between the control and the comparative composition were noted. For each tested composition, this cycle was repeated once to confirm the initial findings. All samples were measured at average 23.0° C.±1° C. between samples for consistent comparison and to minimize any effects of temperature on the perceived taste or sweetness of the composition.
(§2) To perform the taste test, three sweetener samples were paired with one additive and taste tested as described above. A three minute break was taken before tasting another three sweetener samples paired with a different additive. Up to 10 additives per day were used to minimize a fatigue factor. Before tasting, at least 1.5 hours elapsed after ingestion of any food, drink or nicotine. The tests were repeated on a different date to validate the initial findings.
The sweetness detection threshold levels for 21 entities were measured by a single assessor in water at room temperature according to the multi-sip and swallow taste method described herein.

[6] = Descriptive sensory analysis of lemon-lime carbonated beverages at 4° C.; format: in vivo, human; conditions: 135 ppm rubusoside added to 8% HFSS lemon-lime beverage
Protocol: Three test products were prepare: a control beverage comprising 10.52% High Fructose Starch Syrup (HFSS), a lemon-lime prototype comprising 8% HFSS and 135 ppm rubusoside, and a standard lemon-lime beverage comprising 8% HFSS.
As part of study design, a full sensorial profile was determined using a Complete Block Design (CBD). All products were randomized and balanced. Each assessor evaluated all products sequentially. Each product was evaluated three times by each assessor. Eight minute time breaks between tasting samples. Unsalted cracker, 0.75% saline solution and mineral grade water was used as a mouth rinse and refresher before each sample. Each assessor was served 75 ml of chilled beverage (4° C.+/−1° C.). Table 5 provides the categories and the descriptions of the various attributes identified in Table 4.

[7] = Sweetness recognition threshold in lemon-lime carbonated beverage at 4° C.; format: in vivo, human; conditions: lemon-lime carbonated beverage (citric buffer) at 4° C., average of six subjects
Protocol: Preliminarily, multi-levels of steviol glycoside solution in lemon-lime beverage at 4° C. were prepared by mixing the calculated formulations to obtain 450, 350, 250 and 150 ppm of steviol glycoside solutions. Those solutions were then tasted by six experienced subjects by using the sip-and-spit protocol disclosed herein. The sweetness recognition threshold for rubusoside was determined to be averaged 150 ppm. For sweetness enhancement test of rubusoside in lemon-lime beverage, it was decided to use a 10 percent less of sweetness recognition threshold or 135 ppm (150−10%=135).

[8] = Sweetness enhancement of glucose, fructose or sucrose at 6% SE in water by additive at its threshold level; format: in vivo, human; conditions: room temperature, additive at its Table 1 threshold level
Protocol: as §1, §2
The twenty-one entities above were combined in a concentration at the sweetness detection threshold level listed in Table 1, with one of Glucose (GLU), Fructose (FRU), and Sucrose (SUG), each at a fixed SE (Sucrose Equivalents) level of 6%. The sweetness of the compositions was measured as described above at room temperature.

Structure (SMILES) | Typical sweetness threshold level [1] | Average sweetness intensity rating [2] | Taste of the solution [3] | Enhancement of the 6% sucrose [4] | Sweetness Detection Threshold Level [5] | Times as sweet as the prototype without rubusoside [6] | Sweetness equivalence ([6]; interpolation of the data) | Sweetness recognition threshold [7] | Sensory result versus FRU 55,000 ppm ([8]; fructose at 6% SE in water) | Sensory result versus GLU 99,000 ppm ([8]; glucose at 6% SE in water) | Sensory result versus SUC 60,000 ppm ([8]; sucrose at 6% SE in water)
OC[C@H]1O[C@@](CO)(O[C@H]2O[C@H](CO)[C@@H](O)[C@H](O)[C@H]2O)[C@@H](O)[C@@H]1O [sucrose] | 0.5% |  |  |  |  |  |  |  |  |  | 
C=C1C[C@@]23CC[C@H]4[C@@](C)(CCC[C@@]4(C)C(=O)O[C@@H]4O[C@H](CO)[C@@H](O)[C@H](O)[C@H]4O)[C@@H]2CC[C@]1(O[C@@H]1O[C@H](CO)[C@@H](O)[C@H](O)[C@H]1O)C3 [Rubusoside] |  | 7.9 | absence of taste | about 2 % SE | 50 ppm | 1.15 times | 9.2 % HFSS | 150 ppm | N(S+) (No difference but slightly more sweet (0.5-0.75%)) | N(S+) (No difference but slightly more sweet (0.5-0.75%)) | ++S (Much more sweetness intensity (~2.0% SE))

From patent US20110160311A1, “Sweetness Enhancers, Compositions Thereof, and Methods for Use” (The Coca-Cola Company, priority 2009, published 2011)
